From ChEMBL document CHEMBL2016455, “5-Benzothiazole substituted pyrimidine derivatives as HCV replication (replicase) inhibitors” (Bioorg Med Chem Lett, 2012)
pEC50: −log10 of the molar value.

Experiments:
Hepatitis C virus = test: Antiviral activity against Hepatitis C virus isolate con1 1b infected in human hepatoma cells replicon cells after 3 days by RT-PCR analysis; assay type: functional, organism-based, Hepacivirus hominis, genotype 1b Con1
[1] = AUC (0 to 6 hrs) in rat at 10 mg/kg, po; assay type: ADME, organism-based; design: time < 6 hr, dose 10 mg/kg, route oral; conditions: plasma
Liver = test: Drug uptake in rat liver per mg tissue at 10 mg/kg, po after 6 hrs; assay type: ADME, organism-based; design: dose 10 mg/kg, route oral; conditions: in vivo
[2] = Cytotoxicity against human hepatoma cells after 3 days by MTS assay; assay type: cell-based; conditions: for CC50 at 72 h: human hepatoma cells
[3] = Cytotoxicity against human hepatoma cells assessed as decrease in RNA level after 3 days by RT-PCR analysis; assay type: cell-based; conditions: for CC50 at 72 h: human hepatoma cells
[4] = AUC (0 to 24 hrs) in rat at 10 mg/kg, po; assay type: ADME, organism-based; design: time < 24 hr, dose 10 mg/kg, route oral; conditions: plasma
[5] = AUC (0 to 24 hrs) in rat at 2 mg/kg, iv and 10 mg/kg, po; assay type: ADME, organism-based; conditions: plasma
[6] = Oral bioavailability in rat at 10 mg/kg; assay type: ADME, organism-based; conditions: in vivo
[7] = AUC (0 to 24 hrs) in monkey at 1 mg/kg, iv and 3 mg/kg, po; assay type: ADME, organism-based, Macaca mulatta; conditions: rhesus monkey, plasma
[8] = Oral bioavailability in monkey at 3 mg/kg; assay type: ADME, organism-based, Macaca mulatta; conditions: rhesus monkey, in vivo
[9] = AUC (0 to 24 hrs) in dog at 1 mg/kg, iv and 3 mg/kg, po; assay type: ADME, organism-based, Canis lupus familiaris; conditions: plasma
[10] = Oral bioavailability in dog at 3 mg/kg; assay type: ADME, organism-based, Canis lupus familiaris; conditions: in vivo
Cytochrome P450 2D6 = Cytochrome P450 2D6 (Homo sapiens, UniProt P10635); test: Inhibition of CYP2D6; assay type: ADME
Sequence of Cytochrome P450 2D6 (P10635 whole entry): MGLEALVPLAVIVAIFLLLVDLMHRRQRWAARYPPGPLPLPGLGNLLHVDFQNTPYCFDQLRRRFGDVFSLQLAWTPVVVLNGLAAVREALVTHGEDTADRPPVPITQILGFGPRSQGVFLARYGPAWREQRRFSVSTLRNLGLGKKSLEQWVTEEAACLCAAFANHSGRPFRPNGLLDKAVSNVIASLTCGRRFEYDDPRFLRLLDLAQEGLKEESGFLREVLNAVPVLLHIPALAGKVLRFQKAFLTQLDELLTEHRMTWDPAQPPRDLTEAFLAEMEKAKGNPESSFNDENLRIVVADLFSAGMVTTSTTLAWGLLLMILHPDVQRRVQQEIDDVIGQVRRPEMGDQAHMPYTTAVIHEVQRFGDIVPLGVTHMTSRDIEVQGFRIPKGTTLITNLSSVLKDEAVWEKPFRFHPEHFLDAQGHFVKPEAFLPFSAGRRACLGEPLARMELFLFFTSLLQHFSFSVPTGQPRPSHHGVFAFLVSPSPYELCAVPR

Cytochrome P450 3A4 = Cytochrome P450 3A4 (Homo sapiens, UniProt P08684); test: Inhibition of CYP3A4; assay type: ADME
Sequence of Cytochrome P450 3A4 (P08684 whole entry): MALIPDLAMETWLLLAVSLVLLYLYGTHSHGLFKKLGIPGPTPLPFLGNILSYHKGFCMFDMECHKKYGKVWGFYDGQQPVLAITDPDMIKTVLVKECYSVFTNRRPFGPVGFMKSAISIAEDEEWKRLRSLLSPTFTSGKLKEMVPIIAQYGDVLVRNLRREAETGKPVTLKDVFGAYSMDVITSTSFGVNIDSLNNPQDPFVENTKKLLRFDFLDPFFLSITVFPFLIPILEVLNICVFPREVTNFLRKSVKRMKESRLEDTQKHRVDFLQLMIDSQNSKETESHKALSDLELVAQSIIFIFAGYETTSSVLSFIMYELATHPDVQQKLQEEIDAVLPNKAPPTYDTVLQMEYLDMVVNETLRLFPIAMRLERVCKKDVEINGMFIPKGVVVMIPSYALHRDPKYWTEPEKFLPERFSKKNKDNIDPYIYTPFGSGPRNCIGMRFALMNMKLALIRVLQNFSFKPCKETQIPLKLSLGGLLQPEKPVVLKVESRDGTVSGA

Cytochrome P450 2C9 = Cytochrome P450 2C9 (Homo sapiens, UniProt P11712); test: Inhibition of CYP2C9; assay type: ADME
Sequence of Cytochrome P450 2C9 (P11712 whole entry): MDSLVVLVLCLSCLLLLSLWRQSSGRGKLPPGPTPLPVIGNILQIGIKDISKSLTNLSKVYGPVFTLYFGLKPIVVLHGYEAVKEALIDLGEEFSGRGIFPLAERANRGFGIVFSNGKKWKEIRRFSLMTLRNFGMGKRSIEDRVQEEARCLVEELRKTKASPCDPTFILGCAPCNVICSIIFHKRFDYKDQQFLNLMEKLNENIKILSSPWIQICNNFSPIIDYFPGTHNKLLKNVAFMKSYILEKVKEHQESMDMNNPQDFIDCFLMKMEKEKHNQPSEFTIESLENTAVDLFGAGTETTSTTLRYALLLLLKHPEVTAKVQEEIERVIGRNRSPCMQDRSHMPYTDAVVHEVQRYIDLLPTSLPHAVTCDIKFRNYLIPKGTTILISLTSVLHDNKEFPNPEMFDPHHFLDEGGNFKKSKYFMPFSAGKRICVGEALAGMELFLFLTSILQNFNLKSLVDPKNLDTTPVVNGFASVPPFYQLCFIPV

[11] = Selectivity ratio of CC50 for human hepatoma cells to EC50 for Hepatitis C virus isolate con1 1b; assay type: ADME; conditions: read-out: Ratio CC50/EC50
[12] = Drug uptake in rat liver at 10 mg/kg, po after 4 hrs; assay type: ADME, organism-based; design: dose 10 mg/kg, route oral; conditions: read-out: Drug uptake
[13] = Hepatitis C virus, genotype 1b Con1, 72 h

Structure (SMILES)	pEC50 (Hepatitis C virus; [13])	AUC(0-t) at 6 h [1] [µM·h]	Drug uptake (Liver) [ng/g]	CC50 at 72 h [2] [µM]	CC50 at 72 h [3] [µM]	further results
Cc1nc(NC(C)(C)C)nc(N[C@@H]2C[C@H](CO)[C@@H](O)[C@H]2O)c1-c1nc2ccccc2s1	7.05	5	1240	13	12	–
Nc1ncc(-c2nc3ccccc3s2)c(N[C@@H]2C[C@H](CO)[C@@H](O)[C@H]2O)n1	6.70	0.4	250	> 25	> 25	–
CNc1nc(C)c(-c2nc3ccccc3s2)c(N[C@@H]2C[C@H](CO)[C@@H](O)[C@H]2O)n1	7.30	2.7	75	> 25	> 25	–
CCNc1nc(C)c(-c2nc3ccccc3s2)c(N[C@@H]2C[C@H](CO)[C@@H](O)[C@H]2O)n1	7.00	6.2	515	> 25	12	–
Cc1nc(NC(C)C)nc(N[C@@H]2C[C@H](CO)[C@@H](O)[C@H]2O)c1-c1nc2ccccc2s1	6.80	19.6	3320	14	13	–
Cc1nc(N(C)C)nc(N[C@@H]2C[C@H](CO)[C@@H](O)[C@H]2O)c1-c1nc2ccccc2s1	6.85	–	1030	16	18	AUC(0-t) at 24 h [4]: 11 µM·h
Cc1nc(NCC(F)(F)F)nc(N[C@@H]2C[C@H](CO)[C@@H](O)[C@H]2O)c1-c1nc2ccccc2s1.Cl	–	–	–	–	–	pEC50 (Hepatitis C virus): 7.52; AUC(0-t) [5]: 7 µM·h; bioavailability [6]: 82%; CC50 ([2]; 72 h): 17 µM; AUC(0-t) [7]: 0.3 µM·h; bioavailability [8]: 8%; AUC(0-t) [9]: 7.8 µM·h; bioavailability [10]: 35%; INH (Cytochrome P450 2D6): > 20 µM; INH (Cytochrome P450 3A4): > 20 µM; INH (Cytochrome P450 2C9): > 20 µM; CC50 ([3]; 72 h): 25 µM; selectivity ratio [11]: > 550
Cc1nc(NCC(F)(F)F)nc(N[C@@H]2C[C@H](CO)[C@@H](O)[C@H]2O)c1-c1nc2ccccc2s1	–	–	–	> 25	> 25	pEC50 (Hepatitis C virus): 6.10; AUC(0-t) at 24 h [4]: 7 µM·h; concentration at 4 h [12]: 8420 ng/g
